# According to patent US20100267561A1, “HERBICIDAL PYRIDAZINONE DERIVATIVES” (priority 2007, published 2010):
# Like-named read-outs stand apart in the source and are kept apart here.
# How the values were obtained:
# Assay in all cases: Test B pre-/postemergence plant response
# Assay type in all cases: in vivo
# [1] = tested on: Russian thistle (Salsola iberica); settings: Preemergence
# Method in brief: (§1)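 Seeds were sown and sprayed preemergence, while plants at 2 to 18 cm (1- to 4-leaf stage) got postemergence sprays. Compounds were formulated in a non-phytotoxic solvent mixture with surfactant. After 13 to 15 days in a greenhouse, injury was rated visually against untreated controls, 0 (no effect) to 100 (complete control).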
# wild oat (Avena fatua) = settings: for pest or weed control at 31 g/ha / pest or weed control at 62 g/ha: Avena fatua, read-out: Plant response rating, Oat, Wild; for pest or weed control at 31 g/ha: 31 g ai/ha; for pest or weed control at 62 g/ha: 62 g ai/ha, 100 complete control
# Method in brief: as §1
# [2] = tested on: woolly cupgrass (Eriochloa villosa); settings: for pest or weed control at 31 g/ha: 31 g ai/ha; for pest or weed control at 62 g/ha: 62 g ai/ha, 100 complete control
# Method in brief: as §1
# [3] = tested on: blackgrass (Alopecurus myosuroides); settings: for pest or weed control at 31 g/ha: 31 g ai/ha; for pest or weed control at 62 g/ha: 62 g ai/ha, 100 complete control
# Method in brief: as §1
# [4] = tested on: goosegrass (Eleusine indica); settings: for pest or weed control at 31 g/ha / pest or weed control at 62 g/ha: Eleusine indica, read-out: Plant response rating, Goosegrass; for pest or weed control at 31 g/ha: 31 g ai/ha; for pest or weed control at 62 g/ha: 62 g ai/ha, 100 complete control
# Method in brief: as §1
# [5] = tested on: common ragweed (Ambrosia elation); settings: for pest or weed control at 31 g/ha / pest or weed control at 62 g/ha: Ambrosia, read-out: Plant response rating, Ragweed; for pest or weed control at 31 g/ha: 31 g ai/ha; for pest or weed control at 62 g/ha: 62 g ai/ha, 100 complete control
# Method in brief: as §1
# corn (Zea mays) = settings: for Corn plant response rating (crop injury, 0 = no effect, 100 = complete kill) at 31 g/ha: 31 g ai/ha; for Corn plant response rating (crop injury, 0 = no effect, 100 = complete kill) at 62 g/ha: 62 g ai/ha, 100 complete control
# Method in brief: as §1
# [6] = tested on: velvetleaf (Abutilon theophrasti); settings: for pest or weed control at 31 g/ha / pest or weed control at 62 g/ha: Abutilon theophrasti, read-out: Plant response rating, Velvetleaf; for pest or weed control at 31 g/ha: 31 g ai/ha; for pest or weed control at 62 g/ha: 62 g ai/ha, 100 complete control
# Method in brief: as §1
# [7] = tested on: catchweed bedstraw (Galium aparine); settings: Preemergence
# Method in brief: as §1
# [8] = tested on: large crabgrass (Digitaria sanguinalis); settings: for pest or weed control at 31 g/ha: 31 g ai/ha; for pest or weed control at 62 g/ha: 62 g ai/ha, 100 complete control
# Method in brief: as §1
# [9] = tested on: johnsongrass (Sorghum halepense); settings: for pest or weed control at 31 g/ha / pest or weed control at 62 g/ha: Sorghum halepense, read-out: Plant response rating, Johnsongrass; for pest or weed control at 31 g/ha: 31 g ai/ha; for pest or weed control at 62 g/ha: 62 g ai/ha, 100 complete control
# Method in brief: as §1
# [10] = tested on: cocklebur (Xanthium strumarium); settings: for pest or weed control at 31 g/ha: 31 g ai/ha; for pest or weed control at 62 g/ha: 62 g ai/ha, 100 complete control
# Method in brief: as §1
# [11] = tested on: yellow nutsedge (Cyperus esculentus); settings: for pest or weed control at 31 g/ha / pest or weed control at 62 g/ha: Cyperus, read-out: Plant response rating, Nutsedge, Yellow; for pest or weed control at 31 g/ha: 31 g ai/ha; for pest or weed control at 62 g/ha: 62 g ai/ha, 100 complete control
# Method in brief: as §1
# [12] = 8 g ai/ha, scale 0 to 100 (0 no effect, 100 complete control)
# [13] = 8 g ai/ha, postemergence, 0-100 scale
# [14] = 16 g ai/ha, postemergence, 0-100 scale
# [15] = post-emergence, Postemergence, scale 0 to 100
# [16] = post-emergence, Postemergence, scale 0 to 100, 0 no effect
# [17] = pre-emergence, Preemergence, scale 0 to 100 (0 no effect, 100 complete control)
# [18] = pre-emergence, Preemergence, 0 to 100 scale, 0 no effect
# [19] = Preemergence, 8 g ai/ha, scale 0 to 100 (0 no effect, 100 complete control)
# [20] = Preemergence, 16 g ai/ha, scale 0 to 100
smiles,measurement,setting,value
"Cc1cc(-c2ccc(Br)cc2)nn1-c1c(O)cn[nH]c1=O [Compound 78, 4-[3-(4-bromophenyl)-5-methyl-1H-pyrazol-1-yl]-5-hydroxy-3(2H)-pyridazinone]",Russian Thistle plant response rating,[1]; [12],0
same,"Plant response rating, Russian Thistle","[1]; 31 g ai/ha, scale 0 to 100 (0 no effect, 100 complete control)",0
same,"Plant response rating, Russian Thistle","[1]; 62 g ai/ha, 0 to 100 scale, 0 no effect, 100 complete control",0
same,Russian Thistle plant response rating,"[1]; 16 g ai/ha, scale 0 to 100",0
same,"Oat, Wild plant response rating",wild oat (Avena fatua); [13],98
same,"Oat, Wild plant response rating",wild oat (Avena fatua); [14],100
same,pest or weed control at 31 g/ha,wild oat (Avena fatua); [15],100%
same,pest or weed control at 62 g/ha,wild oat (Avena fatua); [16],100%
same,pest or weed control at 31 g/ha,wild oat (Avena fatua); [17],70%
same,pest or weed control at 62 g/ha,wild oat (Avena fatua); [18],85%
same,"Oat, Wild plant response rating",wild oat (Avena fatua); [19],30
same,"Oat, Wild plant response rating",wild oat (Avena fatua); [20],40
same,"Cupgrass, Woolly plant response rating",[2]; [13],98
same,pest or weed control at 16 g/ha,"[2]; Eriochloa villosa, post-emergence, Postemergence, 16 g ai/ha, scale 0 to 100, read-out: Plant response rating, Cupgrass, Woolly",100%
same,pest or weed control at 31 g/ha,"[2]; Eriochloa villosa, post-emergence, Postemergence, scale 0 to 100, read-out: Plant response rating, Cupgrass, Woolly",100%
same,pest or weed control at 62 g/ha,"[2]; Eriochloa villosa, post-emergence, Postemergence, scale 0 to 100, 0 no effect, read-out: Plant response rating, Cupgrass, Woolly",100%
same,pest or weed control at 31 g/ha,"[2]; Eriochloa villosa, pre-emergence, Preemergence, scale 0 to 100 (0 no effect, 100 complete control), read-out: Plant response rating, Cupgrass, Woolly",100%
same,pest or weed control at 62 g/ha,"[2]; Eriochloa villosa, pre-emergence, Preemergence, 0 to 100 scale, 0 no effect, read-out: Plant response rating, Cupgrass, Woolly",100%
same,"Cupgrass, Woolly plant response rating",[2]; [19],65
same,"Cupgrass, Woolly plant response rating",[2]; [20],98
same,Blackgrass plant response rating,[3]; [13],70
same,pest or weed control at 16 g/ha,"[3]; Alopecurus myosuroides, post-emergence, Postemergence, 16 g ai/ha, scale 0 to 100, read-out: Plant response rating, Blackgrass",95%
same,pest or weed control at 31 g/ha,"[3]; Alopecurus myosuroides, post-emergence, Postemergence, scale 0 to 100, read-out: Plant response rating, Blackgrass",100%
same,pest or weed control at 62 g/ha,"[3]; Alopecurus myosuroides, post-emergence, Postemergence, scale 0 to 100, 0 no effect, read-out: Plant response rating, Blackgrass",100%
same,pest or weed control at 31 g/ha,"[3]; Alopecurus myosuroides, pre-emergence, Preemergence, scale 0 to 100 (0 no effect, 100 complete control), read-out: Plant response rating, Blackgrass",100%
same,pest or weed control at 62 g/ha,"[3]; Alopecurus myosuroides, pre-emergence, Preemergence, 0 to 100 scale, 0 no effect, read-out: Plant response rating, Blackgrass",100%
same,Blackgrass plant response rating,[3]; [19],70
same,Blackgrass plant response rating,[3]; [20],90
same,Goosegrass plant response rating,[4]; [13],70
same,Goosegrass plant response rating,[4]; [14],85
same,pest or weed control at 31 g/ha,[4]; [15],90%
same,pest or weed control at 62 g/ha,[4]; [16],100%
same,pest or weed control at 31 g/ha,[4]; [17],100%
same,pest or weed control at 62 g/ha,[4]; [18],100%
same,Goosegrass plant response rating,[4]; [19],85
same,Goosegrass plant response rating,[4]; [20],100
same,Ragweed plant response rating,[5]; [13],0
same,Ragweed plant response rating,[5]; [14],0
same,pest or weed control at 31 g/ha,[5]; [15],0%
same,pest or weed control at 62 g/ha,[5]; [16],60%
same,pest or weed control at 31 g/ha,[5]; [17],0%
same,pest or weed control at 62 g/ha,[5]; [18],0%
same,Ragweed plant response rating,[5]; [19],0
same,Ragweed plant response rating,[5]; [20],0
same,Corn plant response rating,corn (Zea mays); [13],40
same,Corn plant response rating,corn (Zea mays); [19],55
same,Corn plant response rating,corn (Zea mays); [20],85
same,"Corn plant response rating (crop injury, 0 = no effect, 100 = complete kill) at 16 g/ha","corn (Zea mays); Zea mays, post-emergence, Postemergence, 16 g ai/ha, scale 0 to 100",100%
same,"Corn plant response rating (crop injury, 0 = no effect, 100 = complete kill) at 31 g/ha","corn (Zea mays); Zea mays, post-emergence, Postemergence, scale 0 to 100",100%
same,"Corn plant response rating (crop injury, 0 = no effect, 100 = complete kill) at 62 g/ha","corn (Zea mays); Zea mays, post-emergence, Postemergence, scale 0 to 100, 0 no effect",100%
same,"Corn plant response rating (crop injury, 0 = no effect, 100 = complete kill) at 31 g/ha","corn (Zea mays); Zea mays, pre-emergence, Preemergence, scale 0 to 100 (0 no effect, 100 complete control)",100%
same,"Corn plant response rating (crop injury, 0 = no effect, 100 = complete kill) at 62 g/ha","corn (Zea mays); Zea mays, pre-emergence, Preemergence, 0 to 100 scale, 0 no effect",100%
same,Velvetleaf plant response rating,[6]; [13],0
same,Velvetleaf plant response rating,[6]; [14],0
same,pest or weed control at 31 g/ha,[6]; [15],0%
same,pest or weed control at 62 g/ha,[6]; [16],0%
same,pest or weed control at 31 g/ha,[6]; [17],0%
same,pest or weed control at 62 g/ha,[6]; [18],0%
same,Velvetleaf plant response rating,[6]; [19],0
same,Velvetleaf plant response rating,[6]; [20],0
same,pest or weed control at 31 g/ha,"[7]; Galium aparine, pre-emergence, 31 g ai/ha, scale 0 to 100 (0 no effect, 100 complete control), read-out: Plant response rating, Galium",0%
same,pest or weed control at 62 g/ha,"[7]; Galium aparine, pre-emergence, 62 g ai/ha, 0 to 100 scale, 0 no effect, 100 complete control, read-out: Plant response rating, Galium",0%
same,Galium plant response rating,[7]; [12],0
same,Galium plant response rating,"[7]; 16 g ai/ha, scale 0 to 100",0
same,"Crabgrass, Large plant response rating",[8]; [13],98
same,pest or weed control at 16 g/ha,"[8]; Digitaria sanguinalis, post-emergence, Postemergence, 16 g ai/ha, scale 0 to 100, read-out: Plant response rating, Crabgrass, Large",100%
same,pest or weed control at 31 g/ha,"[8]; Digitaria sanguinalis, post-emergence, Postemergence, scale 0 to 100, read-out: Plant response rating, Crabgrass, Large",100%
same,pest or weed control at 62 g/ha,"[8]; Digitaria sanguinalis, post-emergence, Postemergence, scale 0 to 100, 0 no effect, read-out: Plant response rating, Crabgrass, Large",100%
same,pest or weed control at 31 g/ha,"[8]; Digitaria sanguinalis, pre-emergence, Preemergence, scale 0 to 100 (0 no effect, 100 complete control), read-out: Plant response rating, Crabgrass, Large",100%
same,pest or weed control at 62 g/ha,"[8]; Digitaria sanguinalis, pre-emergence, Preemergence, 0 to 100 scale, 0 no effect, read-out: Plant response rating, Crabgrass, Large",100%
same,"Crabgrass, Large plant response rating",[8]; [19],15
same,"Crabgrass, Large plant response rating",[8]; [20],95
same,Johnsongrass plant response rating,[9]; [13],75
same,Johnsongrass plant response rating,[9]; [14],100
same,Johnsongrass plant response rating,[9]; [19],60
same,Johnsongrass plant response rating,[9]; [20],80
same,pest or weed control at 31 g/ha,[9]; [15],100%
same,pest or weed control at 62 g/ha,[9]; [16],100%
same,pest or weed control at 31 g/ha,[9]; [17],95%
same,pest or weed control at 62 g/ha,[9]; [18],100%
same,Cocklebur plant response rating,[10]; [13],0
same,Cocklebur plant response rating,[10]; [19],0
same,Cocklebur plant response rating,[10]; [20],0
same,pest or weed control at 16 g/ha,"[10]; Xanthium strumarium, post-emergence, Postemergence, 16 g ai/ha, scale 0 to 100, read-out: Plant response rating, Cocklebur",0%
same,pest or weed control at 31 g/ha,"[10]; Xanthium strumarium, post-emergence, Postemergence, scale 0 to 100, read-out: Plant response rating, Cocklebur",0%
same,pest or weed control at 62 g/ha,"[10]; Xanthium strumarium, post-emergence, Postemergence, scale 0 to 100, 0 no effect, read-out: Plant response rating, Cocklebur",0%
same,pest or weed control at 31 g/ha,"[10]; Xanthium strumarium, pre-emergence, Preemergence, scale 0 to 100 (0 no effect, 100 complete control), read-out: Plant response rating, Cocklebur",0%
same,pest or weed control at 62 g/ha,"[10]; Xanthium strumarium, pre-emergence, Preemergence, 0 to 100 scale, 0 no effect, read-out: Plant response rating, Cocklebur",0%
same,"Nutsedge, Yellow plant response rating",[11]; [13],0
same,"Nutsedge, Yellow plant response rating",[11]; [14],0
same,pest or weed control at 31 g/ha,[11]; [15],0%
same,pest or weed control at 62 g/ha,[11]; [16],0%
same,pest or weed control at 31 g/ha,[11]; [17],0%
same,pest or weed control at 62 g/ha,[11]; [18],0%
same,"Nutsedge, Yellow plant response rating",[11]; [19],0
same,"Nutsedge, Yellow plant response rating",[11]; [20],0
